# Source: patent publication US20220073475A1, “5-MEMBERED HETEROARYL COMPOUNDS CONTAINING A HYDROXAMATE MOIETY AND THEIR USE” (UNIVERSITE DE LILLE, priority 2019, published 2022)
# “And” between values parts separate entries of the source, which are not always exact repeats. Equal values may be shown once.
# Tested on: OPM2 cells
# Experiment: CFZ potency increase, ratio of CC50 of CFZ alone / with compound
# Format: cell-based, human
# Excerpt: Human multiple myeloma cells OPM2 (ACC 50, DSMZ) are maintained at 0.3-0.7 10^6 cells/mL in RPMI1640 medium supplemented with GlutaMAX™, 10% fetal bovine serum and 1% penicillin-streptomycin.
# We developed a cell-based, high content assay allowing the rapid detection and quantification of apoptotic cells. Caspase-3/7 activity was detected in real-time using the NucView™ 488 Caspase-3 substrate (Biotium), where the caspase-3/7 substrate peptide sequence DEVD is attached to a nucleic acid dye. The NucView™ 488 reagent crosses the plasma membrane to enter the cytoplasm, where the dye is unable to bind to DNA and remains non-fluorescent. Once the substrate has been cleaved by activated caspase-3/7 in apoptotic cells, the high-affinity DNA dye is released and migrates to the cell nucleus to stain the nucleus with a bright green fluorescence. All cell nuclei were also labeled with Hoechst 33342 (Ozyme).
# For OPM2, briefly, nanoliters of compound and cytotoxic agent in DMSO stock solutions were first transferred and combined in 384-microtiter well plate using an Echo555 liquid handler (Labcyte). The exact volume of each solution to be transferred was calculated to achieve subsequently the target concentration in the 70 μL volume incubate. Final DMSO content was maintained at 0.2%. Then, 70 μL of cells treated with 1 μM NucView™ 488 and 20 ng/mL Hoechst 33342 were distributed to the plates to obtain a final density of 12,000 cells per well. The microplates were incubated at 37° C. and 5% CO2 in an automated LiCONiC STR240 UB cell incubator, and images were acquired at various times at 405 nm and 488 nm with the high-resolution automated confocal microscope INCell 6000 (GE). Four fields per well were read with the 20× objective in a confocal mode. The BioCel workstation was managed by VWorks automation control software
# For all cells, Columbus software (Perkin) was used for image quantification and analysis. First, Hoechst 33342 staining was used for an automated detection of nuclei, in which the mean fluorescence intensity for NucView™ 488 was quantified. Inspection of control cells at initial time was used to set a threshold level of NucView™ 488 fluorescence to separate non apoptotic cells from apoptotic cells. Finally, for each well, the result was expressed as percentage of apoptotic cells in the total cell population. CC50 values were calculated from concentration-response curves by a nonlinear regression analysis at four parameters using Excel Fit or GraphPad Prim softwares.
# Activity=(% of apoptotic cells with cytotoxic agent in combination with compound of the invention)/(% of apoptotic cells with cytotoxic agent alone). • Ratio of CC50: The CC50 of the cytotoxic agent was calculated in absence and in presence of a compound of the invention.
# Activity=(CC50 of agent alone)/(CC50 of agent with compound). • Ratio of AUC. Activity=(Area of the dose-concentration curve of cytotoxic agent combined with one concentration of compound)/(Area of the dose-concentration curve of cytotoxic agent alone). (Lehar J. et al, 2008 (molecular systems biology 4:215)).
# [1] = OPM2, compound at 7.5 μM (Table 5)
SMILES,Activity: ratio (CC50 of CFZ alone)/(CC50 of CFZ in combination with compound of the invention) [1],other results
"O=C(C[C@@H](Cc1c[nH]c2ccccc12)n1cc(C(Cc2ccc(OCc3ccccc3)cc2)NC(=O)c2ccc(F)c(F)c2)nn1)NO (stereo partly drawn) [Compound 89, N-[2-(4-benzyloxyphenyl)-1-[1-[(1R)-3-(hydroxyamino)-1-(1H-indol-3-ylmethyl)-3-oxo-propyl]triazol-4-yl]ethyl]-3,4-difluoro-benzamide]",7.6,"Activity: ratio (CC50 of CFZ alone)/(CC50 of CFZ in combination with compound of the invention) (OPM2, compound at 7.5 μM (Table 6)): 7.6"
"O=C(C[C@@H](Cc1c[nH]c2ccccc12)n1cc(C2COCCN2C(=O)c2ccc(F)c(F)c2)nn1)NO (stereo partly drawn) [Compound 90, (3R)-3-[4-[4-(3,4-difluorobenzoyl)morpholin-3-yl]triazol-1-yl]-4-(1H-indol-3-yl)butanehydroxamic acid]",1.4,
"CC(NC(=O)c1ccc(F)c(F)c1)c1cn([C@@H](CC(=O)NO)Cc2c[nH]c3ccccc23)nn1 (stereo partly drawn) [Compound 91, 3,4-difluoro-N-[1-[1-[(1R)-3-(hydroxyamino)-1-(1H-indol-3-ylmethyl)-3-oxo-propyl]triazol-4-yl]ethyl]benzamide]",1.4,
"O=C(C[C@@H](Cc1c[nH]c2ccccc12)n1cc([C@H](CO)NC(=O)c2ccc(F)c(F)c2)nn1)NO [Compound 92, 3,4-difluoro-N-[(1R)-2-hydroxy-1-[1-[(1R)-3-(hydroxyamino)-1-(1H-indol-3-ylmethyl)-3-oxo-propyl]triazol-4-yl]ethyl]benzamide]",1.7,
"O=C(C[C@@H](Cc1ccc2ccccc2c1)n1cc(C2COCCN2C(=O)c2ccc(F)c(F)c2)nn1)NO (stereo partly drawn) [Compound 95, (3R)-3-[4-[4-(3,4-difluorobenzoyl)morpholin-3-yl]triazol-1-yl]-4-(2-naphthyl)butanehydroxamic acid]",2.1,
"O=C(C[C@@H](Cc1ccc2ccccc2c1)n1cc([C@H](CO)NC(=O)c2ccc(F)c(F)c2)nn1)NO [Compound 96, 3,4-difluoro-N-[(1R)-2-hydroxy-1-[1-[(1R)-3-(hydroxyamino)-1-(2-naphthylmethyl)-3-oxo-propyl]triazol-4-yl]ethyl]benzamide]",1.4,
"CC(C)CN(Cc1cn([C@@H](CC(=O)NO)Cc2c[nH]c3ccccc23)nn1)C(=O)c1ccc(F)c(F)c1 [Compound 98, 3,4-difluoro-N-[[1-[(1R)-3-(hydroxyamino)-1-(1H-indol-3-ylmethyl)-3-oxo-propyl]triazol-4-yl]methyl]-N-isobutyl-benzamide]",2.0,
"CC(C)CCN(Cc1cn([C@@H](CC(=O)NO)Cc2c[nH]c3ccccc23)nn1)C(=O)c1ccc(F)c(F)c1 [Compound 99, 3,4-difluoro-N-[[1-[(1R)-3-(hydroxyamino)-1-(1H-indol-3-ylmethyl)-3-oxo-propyl]triazol-4-yl]methyl]-N-isopentyl-benzamide]",2.5,
"O=C(C[C@@H](Cc1cnc2ccccc2c1)n1cc(CNC(=O)c2ccc(F)c(F)c2)nn1)NO [Compound 143, (R)-3,4-difluoro-N-((1-(4-(hydroxyamino)-4-oxo-1-(quinolin-3-yl)butan-2-yl)-1H-1,2,3-triazol-4-yl)methyl)benzamide]",1.1,
"O=C(C[C@@H](Cc1c[nH]c2ccccc12)n1cc(C(Cc2ccc(O)cc2)NC(=O)c2ccc(F)c(F)c2)nn1)NO (stereo partly drawn) [Compound 146, 3,4-Difluoro-N-[1-[1-[(1R)-3-(hydroxyamino)-1-(1H-indol-3-ylmethyl)-3-oxo-propyl]triazol-4-yl]-2-(4-hydroxyphenyl)ethyl]benzamide]",1.4,
"CC(NC(=O)c1ccc(F)cc1)c1cn([C@@H](CC(=O)NO)Cc2ccc3ccccc3c2)nn1 (stereo partly drawn) [Compound 164, 4-fluoro-N-(1-(1-((R)-4-(hydroxyamino)-1-(naphthalen-2-yl)-4-oxobutan-2-yl)-1H-1,2,3-triazol-4-yl)ethyl)benzamide]",2.0,
"O=C(C[C@@H](Cc1ccc2c(c1)CCCC2)n1cc(CNC(=O)c2ccc(F)cc2)nn1)NO [Compound 165, (R)-4-fluoro-N-((1-(4-(hydroxyamino)-4-oxo-1-(5,6,7,8-tetrahydronaphthalen-2-yl)butan-2-yl)-1H-1,2,3-triazol-4-yl)methyl)benzamide]",1.9,
"CN(Cc1cn([C@@H](CC(=O)NO)Cc2ccc3c(c2)CCCC3)nn1)C(=O)c1ccc(F)cc1 [Compound 166, (R)-4-fluoro-N-((1-(4-(hydroxyamino)-4-oxo-1-(5,6,7,8-tetrahydronaphthalen-2-yl)butan-2-yl)-1H-1,2,3-triazol-4-yl)methyl)-N-methylbenzamide]",,"Activity: ratio (CC50 of CFZ alone)/(CC50 of CFZ in combination with compound of the invention) (OPM2, compound at a concentration of 3.7 μM (Table 5, footnote b)): 2.1"
"CC(NC(=O)c1ccc(F)cc1)c1cn([C@@H](CC(=O)NO)Cc2ccc3c(c2)CCCC3)nn1 (stereo partly drawn) [Compound 167, 4-fluoro-N-(1-(1-((R)-4-(hydroxyamino)-4-oxo-1-(5,6,7,8-tetrahydronaphthalen-2-yl)butan-2-yl)-1H-1,2,3-triazol-4-yl)ethyl)benzamide]",2.5,
"O=C(C[C@@H](Cc1ccc2cccnc2c1)n1cc(CNC(=O)c2ccc(F)c(F)c2)nn1)NO [Compound 170, (R)-3,4-difluoro-N-((1-(4-(hydroxyamino)-4-oxo-1-(quinolin-7-yl)butan-2-yl)-1H-1,2,3-triazol-4-yl)methyl)benzamide]",1.5,
"O=C(C[C@@H](Cc1ccc2c(c1)CCC(=O)N2)n1cc(CNC(=O)c2ccc(F)c(F)c2)nn1)NO [Compound 171, (R)-3,4-difluoro-N-((1-(4-(hydroxyamino)-4-oxo-1-(2-oxo-1,2,3,4-tetrahydroquinolin-6-yl)butan-2-yl)-1H-1,2,3-triazol-4-yl)methyl)benzamide]",1.2,
"CC(NC(=O)c1ccc(F)cc1)c1cn([C@@H](CC(=O)NO)Cc2ccc3c(c2)C(C)(C)CCC3(C)C)nn1 (stereo partly drawn) [Compound 172, 4-fluoro-N-(1-(1-((R)-4-(hydroxyamino)-4-oxo-1-(5,5,8,8-tetramethyl-5,6,7,8-tetrahydronaphthalen-2-yl)butan-2-yl)-1H-1,2,3-triazol-4-yl)ethyl)benzamide]",3.9,
"O=C(C[C@@H](Cc1ccc2sccc2c1)n1cc(CNC(=O)c2ccc(F)cc2)nn1)NO [Compound 173, (R)—N-((1-(1-(benzo[b]thiophen-5-yl)-4-(hydroxyamino)-4-oxobutan-2-yl)-1H-1,2,3-triazol-4-yl)methyl)-4-fluorobenzamide]",2.1,
"O=C(C[C@@H](Cc1ccc2ccsc2c1)n1cc(CNC(=O)c2ccc(F)cc2)nn1)NO [Compound 174, (R)—N-((1-(1-(benzo[b]thiophen-6-yl)-4-(hydroxyamino)-4-oxobutan-2-yl)-1H-1,2,3-triazol-4-yl)methyl)-4-fluorobenzamide]",2.0 and 1.5,
"O=C(C[C@@H](Cc1ccc2cc[nH]c2c1)n1cc(CNC(=O)c2ccc(F)cc2)nn1)NO [Compound 176, (R)-4-fluoro-N-((1-(4-(hydroxyamino)-1-(1H-indol-6-yl)-4-oxobutan-2-yl)-1H-1,2,3-triazol-4-yl)methyl)benzamide]",1.3,
"Cn1ccc2cc(C[C@H](CC(=O)NO)n3cc(CNC(=O)c4ccc(F)cc4)nn3)ccc21 [Compound 177, (R)-4-fluoro-N-((1-(4-(hydroxyamino)-1-(1-methyl-1H-indol-5-yl)-4-oxobutan-2-yl)-1H-1,2,3-triazol-4-yl)methyl)benzamide]",1.7,
"O=C(C[C@@H](Cc1ccc2ncsc2c1)n1cc(CNC(=O)c2ccc(F)c(F)c2)nn1)NO [Compound 178, (R)—N-((1-(1-(benzo[d]thiazol-6-yl)-4-(hydroxyamino)-4-oxobutan-2-yl)-1H-1,2,3-triazol-4-yl)methyl)-3,4-difluorobenzamide]",1.3,
